Nc1c(Cl)cc([N+](=O)[O-])cc1Cl
solubility (mole fraction)
Conditions | 278.15 K | 283.15 K | 288.15 K | 293.15 K | 298.15 K | 303.15 K | 308.15 K | 313.15 K | 318.15 K | 323.15 K
in 1,4-dioxane | – | – | – | 0.0251 | 0.0292 | 0.0337 | 0.0389 | 0.0447 | 0.0513 | 0.0598
in NMP | 0.135 | 0.141 | 0.149 | 0.159 | 0.169 | 0.179 | 0.189 | 0.199 | 0.211 | 0.227
in acetonitrile | 0.00152 | 0.00176 | 0.00211 | 0.00249 | 0.00293 | 0.00352 | 0.00411 | 0.00487 | 0.00577 | 0.00665
in cyclohexane | 0.000119 | 0.000147 | 0.000185 | 0.000236 | 0.000301 | 0.000389 | 0.000501 | 0.000617 | 0.00074 | 0.000906
in ethanol | 0.000879 | 0.00102 | 0.00123 | 0.00149 | 0.00183 | 0.00222 | 0.00268 | 0.00325 | 0.00384 | 0.00455
in ethyl acetate | 0.0085 | 0.00938 | 0.0109 | 0.0126 | 0.0153 | 0.0177 | 0.0208 | 0.025 | 0.0291 | 0.0336
in ethylene glycol | 0.000815 | 0.000969 | 0.00117 | 0.00139 | 0.00167 | 0.00195 | 0.00236 | 0.00281 | 0.00338 | 0.00412
in isopropanol | – | 0.00093 | 0.00111 | 0.00133 | 0.00162 | 0.00195 | 0.00234 | 0.00281 | 0.00338 | 0.00413
in methanol | 0.000705 | 0.000814 | 0.000987 | 0.00121 | 0.0015 | 0.00182 | 0.00224 | 0.00267 | 0.00314 | 0.00377
in n-butanol | 0.00121 | 0.00148 | 0.00172 | 0.00216 | 0.0026 | 0.00308 | 0.00378 | 0.00446 | 0.00543 | 0.00638
in n-propanol | 0.00102 | 0.00123 | 0.00146 | 0.00176 | 0.00216 | 0.00258 | 0.00307 | 0.00364 | 0.00441 | 0.00546
in water | 1.88e-06 | 2.53e-06 | 3.43e-06 | 4.76e-06 | 6.43e-06 | 8.31e-06 | 1.06e-05 | 1.37e-05 | 1.72e-05 | 2.18e-05

Source: BigSolDB 2.1
